In data set [1] the test system is azathioprine-sensitive, rosette-forming cells. The data set is described as follows: mouse E-rosette procedure (restoration of azathioprine-sensitive rosette-forming cells in adult thymectomized mice). The data set is classed as in vivo, mouse (CD-1. As to the method:
(§1) Antiinflammatory activity is reflected in the so-called rat foot edema test, in which the ability of an oral dose of the compound to inhibit an inflammatory reaction is measured, while immunoregulatory activity is assessed by the so-called mouse E-rosette procedure in which the ability of the test compound to restore erythrocyte rosette formation in thymectomized mice is measured. These tests are described in greater detail below.
As mentioned above, the immunoregulatory activity of the compounds of this invention is assessed by the mouse E-rosette procedure. In the mouse, the presence of a thymus is required for full expression of normal rosette formation with sheep erythrocytes [see for example, Bach and Dardenne, Immunol. 25, 353 (1973)]. The procedure examines the ability of a drug to restore azathioprine-sensitive, rosette-forming cells in adult thymectomized mice to the levels of normal animals. Specifically, rosette formation is examined in CD-1 mice thymectomized at 4 weeks of age and left at least 14 days post-surgery before manipulation (ATX mice). The ATX mice are dosed orally either with saline vehicle or drug. Sixteen hours later, single cell suspensions are prepared in Hanks balanced salt solution (HBSS) from the pooled spleens of three mice. To each tube is added 0.1 ml of lymphocytes (6×10^7 /ml) in HBSS and either 0.1 ml of HBSS or 0.1 ml of 40 μg/ml azathioprine in HBSS. After 90 minutes incubation at 37° C., the cells are washed 2× with 5 ml. of HBSS, made back up to 0.2 ml, and 0.2 ml of sheep red blood cells (erythrocytes) at 1.2×10^8 cells/ml. added. Then […] on hemagglutination slides and the number of rosettes counted. The ability of the test compound to restore the number of azathioprine sensitive rosetting cells to normal or higher is determined. In normal mice 42%±12% azathioprine sensitivity is found. In adult thymectomized mice 3±3% azathioprine sensitivity is found.

Data set [2] deals with carrageenin-induced rat foot edema. As to the kind of experiment: carrageenin-induced rat foot edema test. Format: in vivo, rat (male albino). As to the method:
as §1
As mentioned above, the antiinflammatory activity of the compounds of the present invention is determined in the standard carrageenin-induced rat foot edema test [described by C. A. Winter et al., Proc. Soc. Exp. Biol. 111, p. 544 (1962)]. In this test, antiinflammatory activity is determined as the inhibition of edema formation in the hind paw of male albino rats (weight 150-190 g.) in response to a subplantar injection of carrageenin. The carrageenin is injected as a 1 percent aqueous suspension (0.05 ml.) 1 hour after oral administration of the drug. Edema formation is then assessed 3 hours after the carrageenin injection by measuring the volume of the injected paw initially as well as at the 3 hour mark. The increase in volume three hours after carrageenin injection constitutes the individual response. Compounds are considered active if the response between the drug-treated animals (six rats/group) and the control group (i.e., animals receiving the vehicle alone) is deemed to be significant on comparison with results afforded by standard compounds like acetylsalicylic acid at 100 mg./kg […] phenylbutazone at 33 mg./kg., both by the oral route of administration. The activity of the compound under test is expressed as the % inhibition of edema at a given oral dose. The ability of compounds to inhibit edema at various oral dosages (mg./kg., i.e. mg. of drug/kg. of rat body weight) is shown in Table II.

The subject of data set [3] is prostaglandin synthesis in MC5-5 cells. The data set is described as follows: prostaglandin synthesis in MC5-5 cells in vitro. Format: cell-based. As to conditions: read-out: IC50, inhibition of prostaglandin synthesis in MC5-5 cells.
In data set [4] the test system is ultraviolet light induced erythema. The data set is described as follows: ultraviolet light induced erythema procedure. Format: in vivo. To be noted: for suppression of erythema (NSAI drugs): ultraviolet light induced erythema, dose not given.
Data set [5] deals with polyarthritis produced by injection of complete Freund's adjuvant. As to the kind of experiment: polyarthritis produced by injection of complete Freund's adjuvant in Wistar-Lewis rats. Format: in vivo, rat (Wistar-Lewis). To be noted: for effect on weight loss induced by adjuvant disease: rat, in vivo; for suppression of primary and secondary responses: reference NSAI drugs, dose not given. The source says:
This pattern of antiarthritic activity again distinguishes 4-(2-hydroxyethylthiomethyl)pyridine /from the classical NSAI drugs.

For data set [6], the system named is humoral immune response to sheep red blood cells. As to the kind of experiment: humoral immune response of mice to sheep red blood cells. The data set is classed as in vivo. As to conditions: for effect on humoral immune response to sheep red blood cells (immunosuppressive drugs): same conditions, dose of the drugs not given.
In another data set the test system is mice. As to the kind of experiment: acute oral toxicity in mice. Format: in vivo. As to the method:
(§2) Its oral LD50 in mice is greater than 100 mg./kg. In the rat, it also has an LD50 value greater than 1000 mg./kg. […] No changes in clinical chemistry, hematology or body weight were observed.

A short description of data set [7]: acute toxicity in the rat. As to conditions: rat, in vivo, po. Format: in vivo. As to the method: as §2
A further data set concerns rat. The data set is described as follows: acute toxicity in the rat. The data set is classed as in vivo. To be noted: rats. As to the method:
as §2

A short description of the next data set: water solubility. The data set is classed as physicochemical. As to conditions: dihydrogen phosphate salt.
The test system of a further data set is rats. As to conditions: oral.
[8] abbreviates: oral dosage of 1 mg./kg., thymectomized mice.
[9] abbreviates: oral dosage of 33 mg./kg., 3 hours after carrageenin.

This is an account of results in US4246263A, “Antiinflammatory and immunoregulatory pyrimidines, their method of use and pharmaceutical compositions” (priority 1979, dated 1981).

Like-named read-outs stand apart in the source and are kept apart here.

Consider `CC(O)C(C)SCc1ccncc1` (stereo not shown), for which the “% Rosetting Cells” value in data set [1] (setting [8]) was 63%.

As to `Oc1ccccc1SCc1ccncc1`, the “% Rosetting Cells” value in data set [1] (setting [8]) is listed as 59%.

Consider `OCC(SCc1ccncc1)c1ccccc1` (stereo not shown), for which, in data set [1] (setting [8]), the “% Rosetting Cells” value came out at 33%.

Regarding `OC(CSCc1ccncc1)c1ccccc1` (stereo not shown), the “% Rosetting Cells” value in data set [1] (oral, 10 mg./kg.) was determined as 50%.

In the case of `COc1ccc(C(O)CSCc2ccncc2)cc1` (stereo not shown), the “% Rosetting Cells” value in data set [1] (setting [8]) amounted to 43%.

Turning to `O=[N+]([O-])c1ccc(C(O)CSCc2ccncc2)cc1` (stereo not shown), the “% Rosetting Cells” value in data set [1] (setting [8]) is 40%.

For `CC(SCc1ccncc1)C(O)c1ccccc1` (stereo not shown), in data set [1] (setting [8]), the “% Rosetting Cells” value is 33%.

As to `CC(C)(O)CSCc1ccncc1`, in [1] (setting [8]), the “% Rosetting Cells” value is given as 39%.

As a reminder, the IC50 is the concentration that inhibits the measured activity by half. As usually defined, the ED50 is the dose at which the effect has come halfway, by size or by number of responders. As a reminder, the LD50 is the dose at which mortality reaches 50%. On to `OCCSCc1ccncc1` [4-(2-Hydroxyethylthiomethyl)pyridine], for which, in [1] (oral, 0.01 mg./kg.), the “% Rosetting Cells” value was determined as 16%. The “% Inhibition of Edema” value came out at 52% in [2] (setting [9]); 16% in [2] (oral, 3.3 mg./kg.); 29% in [2] (oral, 10 mg./kg.). In data set [3], the IC50 was more than 100 µM. Further, the “activity in ultraviolet light induced erythema procedure” value in [4] (33 mg./kg. p.o.) is on record as “lack of activity”. For the same compound, the ED50 in data set [5] (Rattus norvegicus, po) is approximately 33 mg/kg. In addition, the “effect on the rapid onset, acute inflammation of the adjuvant-injected foot” value in [5] (day 4 or day 16) is recorded as “no effects”. For the same compound, in [5] (p.o.), the “antiarthritic effect on the secondary response (spread of disease to the uninjected foot)” value is reported as “selective for the slow onset, lymphoid cell mediated, secondary response”. For the same compound, the “protection from adjuvant polyarthritis” value in [5] (p.o.) was “dose-related protection”. Besides, in data set [5], the “effect on weight loss induced by adjuvant disease” value (from here on “effect on weight loss induced”) was “does not affect the weight loss”. In [6] (four daily oral doses, 33 mg./kg.), the “effect on humoral immune response to sheep red blood cells” value was “did not affect the humoral immune response”. In addition, the “acute toxicity relative to levamisole” value in the data set with mice (mice) and with rat was “less acutely toxic than levamisole” in each case. The LD50 result in the data set on mice (mouse, in vivo, po) was “greater than 100 mg./kg”; in data set [7], more than 1000 mg/kg.

As for `O=P(O)(O)O.OCCSCc1ccncc1` [4-(2-hydroxyethylthiomethyl)pyridinium dihydrogen phosphate], in “water solubility”, the water solubility entry was “excellent water solubility”.

Consider `OCCSCc1ccncn1` [4-(2-hydroxyethylthiomethyl)pyrimidine, 4-(2-Hydroxyethylthiomethyl)pyrimidine], for which the “restoration of rosette formation” value in data set [1] (oral dosage of 1 mg./kg., pyrimidine) turned out to be 38%. The “% Inhibition of Edema” value in data set [2] (setting [9]) amounted to 11%.

Consider `Sc1ncnc2nc[nH]c12` [6-mercaptopurine], for which the “effect on humoral immune response to sheep red blood cells (immunosuppressive drugs)” value (from here on “effect … (immunosuppressive drugs)”) in data set [6] is on record as “profoundly inhibitory”.

Take `OCCCSCc1ccncc1` [CH2 CH2 CH2, H, 1, 4-(3-Hydroxypropylthiomethyl)pyridine]: the “% Rosetting Cells” value in data set [1] (setting [8]) was determined as 36%.

With `COCCSCc1ccncc1` [CH2 CH2, CH3, 1, 4-(2-Methoxyethylthiomethyl)pyridine], in data set [1] (setting [8]), the “% Rosetting Cells” value was 33%.

As for `OCCSCCc1ccncc1` [CH2 CH2, H, 2, 4-[2-(2-Hydroxyethylthio)ethyl]pyridine], the “% Rosetting Cells” value in data set [1] (setting [8]) is recorded as 50%.

For `CC(=O)OCCSCc1ccncc1` [CH2 CH2, drawing 27, 1, 4-(2-Acetoxyethylthiomethyl)pyridine], in data set [1] (setting [8]), the “% Rosetting Cells” value turned out to be 40%.

In the case of `CN1C(C(=O)Nc2ccccn2)=C(O)c2ccccc2S1(=O)=O` [Piroxicam, reference compound], in data set [5], the “effect on weight loss induced” value is given as “partially preventing the weight loss”; the “suppression of primary and secondary responses” value was “effective in suppressing both the primary and secondary responses”.

For the compound `CC(=O)Oc1ccccc1C(=O)O` [aspirin, acetylsalicylic acid], the ulcerogenic effects result with rats (50 mg./kg.) is on record as “distinct ulcerogenic effects”.

In the case of `Cn1cnc([N+](=O)[O-])c1Sc1ncnc2nc[nH]c12` [azathioprine], the “effect … (immunosuppressive drugs)” value in data set [6] is reported as “profoundly inhibitory”.

Turning to `O=P1(N(CCCl)CCCl)NCCCO1` (stereo not shown) [cyclophosphamide], the “effect … (immunosuppressive drugs)” value in [6] is recorded as “profoundly inhibitory”.

On to `OCC(O)CSCc1ccncc1` (stereo not shown) [drawing 17], for which the “% Rosetting Cells” value in data set [1] (setting [8]) was found to be 57%.

In the case of `CC(CO)SCc1ccncc1` (stereo not shown) [drawing 19], in data set [1] (setting [8]), the “% Rosetting Cells” value turned out to be 40%.

For the compound `CC(O)CSCc1ccncc1` (stereo not shown) [drawing 21], in data set [1] (setting [8]), the “% Rosetting Cells” value turned out to be 56%.

Take `OCC(O)CSCc1ccncc1` (stereo not shown) [drawing 29]: in data set [2] (setting [9]), the “% Inhibition of Edema” value turned out to be 17%.

On to `CC(CO)SCc1ccncc1` (stereo not shown) [drawing 30], for which the “% Inhibition of Edema” value in [2] (setting [9]) came to 20%.

Take `CC(O)CSCc1ccncc1` (stereo not shown) [drawing 31]: the “% Inhibition of Edema” value in data set [2] (setting [9]) was 5%.

In the case of `COc1ccc2c(c1)c(CC(=O)O)c(C)n2C(=O)c1ccc(Cl)cc1` [indomethacin], the “suppression of erythema (NSAI drugs)” value in data set [4] is listed as “clearcut suppression of erythema”. Besides, the ulcerogenic effects entry in the data set on rats (10 mg./kg.) is “distinct ulcerogenic effects”.

For the compound `CN(Cc1cnc2nc(N)nc(N)c2n1)c1ccc(C(=O)N[C@@H](CCC(=O)O)C(=O)O)cc1` [methotrexate], the “effect … (immunosuppressive drugs)” value in data set [6] is “profoundly inhibitory”.

For `CCCCC1C(=O)N(c2ccccc2)N(c2ccccc2)C1=O` [phenylbutazone, reference compound], in [4], the “suppression of erythema (NSAI drugs)” value is given as “clearcut suppression of erythema”. Further, in [5], the “effect on weight loss induced” value was “partially preventing the weight loss”; the “suppression of primary and secondary responses” value was “effective in suppressing both the primary and secondary responses”.
